Experimental data published in ChEMBL document CHEMBL4130531 (ACS Med Chem Lett, 2017).
Values after ≈ are worked out from the molar mass of the structure shown.

Assays:
in vivo [1] = conditions: Sprague-Dawley, rat, brain and plasma, iv, 5 mg/kg
[2] = Fraction absorbed of compound by PAMPA; assay type: ADME; conditions: read-out: Fabs
Mus musculus [3] = assay: Unbound Cmax in HSD athymic nude mouse xenografted with human HCHZ2H1 cells at 200 mg/kg, po administered as single dose by LC-MS/MS analysis; assay type: ADME, organism-based; conditions: in vivo
[4] = Solubility of the compound at pH 6.8; assay type: physicochemical; conditions: buffer
[5] = AUC (0 to 8 hrs) in nude mouse xenografted with human HMEX2838 cells at 100 mg/kg, po administered via gavage as single dose by LC-MS/MS analysis; assay type: ADME, organism-based; design: time < 8 hr, dose 100 mg/kg, route oral; conditions: in vivo
Mus musculus [6] = assay: Unbound AUC (0 to 48 hrs) in HSD athymic nude mouse xenografted with human HCHZ2H1 cells at 200 mg/kg, po administered as single dose by LC-MS/MS analysis; assay type: ADME, organism-based; conditions: in vivo
in vivo [7] = conditions: C57BL/6, mouse, brain and plasma, po, 30 mg/kg
[8] = Lipophilicity, log D of the compound at pH 7.4; assay type: physicochemical; conditions: buffer
Mus musculus [9] = assay: Time at which unbound plasma concentration stays above cellular IDH1 R132H mutant inhibitory IC50 in HSD athymic nude mouse xenografted with human HCHZ2H1 cells; assay type: ADME, organism-based; conditions: in vivo
[10] = AUC in Sprague-Dawley rat plasma at 5 mg/kg, iv by HPLC-MS analysis; assay type: ADME, organism-based
[11] = AUC (0 to 12 hrs) in nude mouse xenografted with human HMEX2838 cells at 100 mg/kg, po bid administered via gavage by LC-MS/MS analysis; assay type: ADME, organism-based; design: time < 12 hr, dose 100 mg/kg, route oral; conditions: in vivo
[12] = Ratio of drug level in brain to plasma in Sprague-Dawley rat at 5 mg/kg, iv by HPLC-MS analysis; assay type: ADME, organism-based; conditions: brain and plasma, read-out: BPR
[13] = AUC (0 to 12 hrs) in nude mouse xenografted with human HMEX2838 cells at 300 mg/kg, po bid administered via gavage by LC-MS/MS analysis; assay type: ADME, organism-based; design: time < 12 hr, dose 300 mg/kg, route oral; conditions: in vivo
[14] = Cmax in HSD athymic nude mouse xenografted with human HCHZ2H1 cells at 200 mg/kg, po administered as single dose by LC-MS/MS analysis; assay type: ADME, organism-based; design: dose 200 mg/kg, route oral; conditions: in vivo
[15] = AUC (0 to 12 hrs) in nude mouse xenografted with human HMEX2838 cells at 30 mg/kg, po bid administered via gavage by LC-MS/MS analysis; assay type: ADME, organism-based; design: time < 12 hr, dose 30 mg/kg, route oral; conditions: in vivo
[16] = AUC (0 to 24 hrs) in nude mouse xenografted with human HMEX2838 cells at 300 mg/kg, po administered via gavage as single dose by LC-MS/MS analysis; assay type: ADME, organism-based; design: dose 300 mg/kg, time < 24 hr, route oral; conditions: in vivo
[17] = AUC (0 to 8 hrs) in nude mouse xenografted with human HMEX2838 cells at 30 mg/kg, po administered via gavage as single dose by LC-MS/MS analysis; assay type: ADME, organism-based; design: dose 30 mg/kg, time < 8 hr, route oral; conditions: in vivo
[18] = AUC in Sprague-Dawley rat at 10 mg/kg, po by HLPC-MS analysis; assay type: ADME, organism-based; conditions: in vivo
[19] = Ratio of drug level in brain to plasma in C57BL/6 mouse at 30 mg/kg, po measured at 1 hr by HPLC-MS analysis; assay type: ADME, organism-based; conditions: brain and plasma, read-out: BPR
[20] = AUC in Sprague-Dawley rat brain at 5 mg/kg, iv by HPLC-MS analysis; assay type: ADME, organism-based
[21] = AUC (0 to 48 hrs) in HSD athymic nude mouse xenografted with human HCHZ2H1 cells at 200 mg/kg, po administered as single dose by LC-MS/MS analysis; assay type: ADME, organism-based; design: dose 200 mg/kg, time < 48 hr, route oral; conditions: in vivo

Q: For `Cc1cc([C@H](C)Nc2nccc(N3C(=O)OC[C@@H]3[C@H](C)F)n2)ncc1-c1ccnc(C(F)(F)F)c1`, which Kp uu (in vivo [1]) is on record?
A: 0.18

Q: And the Fa [2]?
A: 99.3%

Q: And the fCmax (Mus musculus [3])?
A: 1.88 µM

Q: And the solubility [4]?
A: 130 µM (≈ 63.8 µg/mL)

Q: What about the AUC(0-t) at 8 h [5] of the same compound?
A: 71.9 µM·h

Q: And the fAUC (Mus musculus [6])?
A: 17.3 µM·h

Q: What about the Kp uu at 1 h (in vivo [7]) of the same compound?
A: 0.17

Q: And the logD [8]?
A: 2.8

Q: And the Time (Mus musculus [9])?
A: > 12 h

Q: What about the AUC [10] of the same compound?
A: 5.5 µM·h

Q: And the AUC at 12 h [11]?
A: 19.2 µM·h

Q: What about the Kp [12] of the same compound?
A: 0.61

Q: And the AUC at 12 h [13]?
A: 88.9 µM·h

Q: What about the Cmax [14] of the same compound?
A: 16.2 µM

Q: And the AUC at 12 h [15]?
A: 5.4 µM·h

Q: What about the AUC(0-t) at 24 h [16] of the same compound?
A: 212 µM·h

Q: And the AUC(0-t) at 8 h [17]?
A: 10.1 µM·h

Q: And the AUC [18]?
A: 6.2 µM·h

Q: What about the Kp at 1 h [19] of the same compound?
A: 0.29

Q: And the AUC [20]?
A: 3.4 µM·h

Q: What about the AUC(0-t) at 48 h [21] of the same compound?
A: 149 µM·h

Q: With `CC(C)[C@H]1COC(=O)N1c1ccnc(N[C@@H](C)c2ccc(-c3ccnc(C(F)(F)F)c3)cn2)n1` as the compound, how does the AUC [18] read?
A: 1.6 µM·h

Q: Which solubility [4] does the source give for `Cc1cc(-c2cnc([C@H](C)Nc3nccc(N4C(=O)OC[C@@H]4C(C)C)n3)cn2)ccc1F` here?
A: < 5 µM

Q: What does the source list for `Cc1cc(-c2cnc([C@H](C)Nc3nccc(N4C(=O)OC[C@@H]4C(C)C)n3)nc2)ccc1F`?
A: logD [8]: 3.4; AUC [18]: 0.2 µM·h

Q: For `Cc1cc(-c2ccc([C@H](C)Nc3nccc(N4C(=O)OC[C@@H]4C(C)C)n3)nc2)ccn1`, which solubility [4] is on record?
A: 430 µM (≈ 180 µg/mL)
